{
  "source": "ChEMBL document CHEMBL3217540",
  "about": "“New 3-amidinophenylalanine-derived inhibitors of matriptase” (Medchemcomm, 2012)",
  "key": {"[1]": {"species": "Homo sapiens", "experiment": "Selectivity ratio of Ki for recombinant human airway trypsin-like protease to Ki for matriptase (unknown origin)"}, "[2]": {"target": "T1, Transmembrane protease serine 6 (Homo sapiens, UniProt Q8IU80)", "T1 sequence (Q8IU80 whole entry)": "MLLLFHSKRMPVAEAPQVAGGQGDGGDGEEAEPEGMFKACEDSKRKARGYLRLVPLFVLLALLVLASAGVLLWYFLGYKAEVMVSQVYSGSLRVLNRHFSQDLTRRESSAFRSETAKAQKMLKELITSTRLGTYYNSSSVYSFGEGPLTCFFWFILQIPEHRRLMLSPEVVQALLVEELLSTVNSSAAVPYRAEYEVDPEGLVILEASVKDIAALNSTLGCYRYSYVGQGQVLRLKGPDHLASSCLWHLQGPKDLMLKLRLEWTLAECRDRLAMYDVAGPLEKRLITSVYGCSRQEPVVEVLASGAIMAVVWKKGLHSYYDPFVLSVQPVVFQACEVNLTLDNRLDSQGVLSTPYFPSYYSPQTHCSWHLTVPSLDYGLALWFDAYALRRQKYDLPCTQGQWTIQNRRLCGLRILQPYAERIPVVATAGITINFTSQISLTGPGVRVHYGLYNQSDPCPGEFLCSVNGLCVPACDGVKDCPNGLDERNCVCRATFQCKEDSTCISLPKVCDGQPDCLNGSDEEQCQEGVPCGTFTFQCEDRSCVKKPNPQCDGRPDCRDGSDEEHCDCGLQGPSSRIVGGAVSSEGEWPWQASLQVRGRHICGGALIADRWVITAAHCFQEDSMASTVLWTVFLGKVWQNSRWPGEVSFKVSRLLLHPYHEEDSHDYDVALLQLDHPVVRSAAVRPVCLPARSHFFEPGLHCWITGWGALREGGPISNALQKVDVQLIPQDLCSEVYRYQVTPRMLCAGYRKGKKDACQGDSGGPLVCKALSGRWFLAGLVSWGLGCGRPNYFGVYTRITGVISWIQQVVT", "experiment": "Inhibition of matriptase-2 (unknown origin) expressed in HEK293 cells using ln-Ala-Arg-a-Arg-para-nitroanilide as substrate by UV-vis spectrophotometry", "type": "cell-based"}, "[3]": {"target": "Prothrombin (Bos taurus, UniProt P00735)", "experiment": "Inhibition of bovine thrombin using MeSO2-D-Cha-Gly-Arg-pNA as substrate"}, "[4]": {"target": "T2, Suppressor of tumorigenicity 14 protein (Homo sapiens, UniProt Q9Y5Y6)", "T2 sequence (Q9Y5Y6 whole entry)": "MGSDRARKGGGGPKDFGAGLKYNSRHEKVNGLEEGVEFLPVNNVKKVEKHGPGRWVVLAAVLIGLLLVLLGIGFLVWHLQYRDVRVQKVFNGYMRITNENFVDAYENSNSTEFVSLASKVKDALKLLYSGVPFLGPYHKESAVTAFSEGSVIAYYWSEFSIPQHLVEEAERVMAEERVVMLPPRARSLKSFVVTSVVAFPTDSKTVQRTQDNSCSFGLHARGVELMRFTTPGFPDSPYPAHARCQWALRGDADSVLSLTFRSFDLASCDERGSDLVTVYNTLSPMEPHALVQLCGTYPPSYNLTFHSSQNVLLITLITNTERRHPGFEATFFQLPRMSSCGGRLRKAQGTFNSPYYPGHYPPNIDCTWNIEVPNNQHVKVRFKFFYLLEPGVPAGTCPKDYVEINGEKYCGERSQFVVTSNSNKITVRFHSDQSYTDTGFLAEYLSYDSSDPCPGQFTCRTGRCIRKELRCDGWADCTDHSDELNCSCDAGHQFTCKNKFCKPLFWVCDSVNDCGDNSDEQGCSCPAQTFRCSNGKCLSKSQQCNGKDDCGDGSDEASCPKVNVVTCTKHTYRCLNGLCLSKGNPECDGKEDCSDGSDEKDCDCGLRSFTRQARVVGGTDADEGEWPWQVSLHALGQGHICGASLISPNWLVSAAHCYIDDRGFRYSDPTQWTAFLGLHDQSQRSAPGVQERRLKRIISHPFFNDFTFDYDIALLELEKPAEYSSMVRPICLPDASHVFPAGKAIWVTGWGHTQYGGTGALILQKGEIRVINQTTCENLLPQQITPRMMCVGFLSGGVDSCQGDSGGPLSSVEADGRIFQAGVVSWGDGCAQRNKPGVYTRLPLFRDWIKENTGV", "experiment": "Inhibition of matriptase (unknown origin) using MeSO2-D-Cha-Gly-Arg-pNA as substrate"}, "[5]": {"test_system": "HEK293", "experiment": "Selectivity ratio of Ki for matriptase-2 (unknown origin) expressed in HEK293 cells to Ki for matriptase (unknown origin)", "type": "cell-based", "settings": "Homo sapiens"}, "[6]": {"species": "Homo sapiens", "experiment": "Selectivity ratio of Ki for human uPA to Ki for matriptase (unknown origin)"}, "[7]": {"target": "Coagulation factor X (Homo sapiens, UniProt P00742)", "sequence (P00742 41-179 limits assumed)": "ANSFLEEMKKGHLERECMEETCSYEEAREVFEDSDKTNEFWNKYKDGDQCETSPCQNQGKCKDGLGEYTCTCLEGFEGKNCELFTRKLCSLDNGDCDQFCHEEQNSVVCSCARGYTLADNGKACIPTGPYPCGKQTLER", "sequence (P00742 235-488 limits assumed)": "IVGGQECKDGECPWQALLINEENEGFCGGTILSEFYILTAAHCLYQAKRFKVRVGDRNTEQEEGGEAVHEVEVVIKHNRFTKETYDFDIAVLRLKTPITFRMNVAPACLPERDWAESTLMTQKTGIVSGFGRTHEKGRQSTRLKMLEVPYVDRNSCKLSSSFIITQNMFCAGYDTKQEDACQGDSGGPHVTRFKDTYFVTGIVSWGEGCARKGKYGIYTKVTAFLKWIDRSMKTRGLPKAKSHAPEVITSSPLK", "experiment": "Inhibition of human factor 10a using CH3OCO-D-Cha-Gly-Arg-pNA as substrate"}},
  "data": [
    {"smiles": "COc1ccc(-c2cccc(S(=O)(=O)N[C@@H](Cc3cccc(C(=N)N)c3)C(=O)N3CCC(CCN)CC3)c2)c(OC)c1", "values": [
      {"measurement": "Ratio Ki", "setting": "[1]", "value": 20},
      {"measurement": "Ki", "setting": "[2]", "value": 0.31, "unit": "µM"},
      {"measurement": "Ki", "setting": "[3]", "value": 0.03, "unit": "µM"},
      {"measurement": "Ki", "setting": "[4]", "value": 0.001, "unit": "µM"},
      {"measurement": "Ratio Ki", "setting": "[5]", "value": 20},
      {"measurement": "Ratio Ki", "setting": "[6]", "value": 20},
      {"measurement": "Ki", "setting": "[7]", "value": 0.11, "unit": "µM"}
    ]}
  ]
}
